Structures can show the parent of a compound that is named as a salt.
How the values were obtained:
[1] = tested on: PC12 cells; experiment: Veratridine-evoked [^3H]noradrenaline release from PC12 cells; type: cell-based, rat; conditions: for effect on veratridine-evoked [^3H]noradrenaline release (concentration-response): in the absence of rauwolscine / interacting drugs; for activity at 100 µM: PC-12, read-out: Veratridine (1 mM)-induced [^3H]noradrenaline release (% of controls without drug); for effect on veratridine-induced [^3H]noradrenaline release (concentration-response): in the presence of 3 μM rauwolscine; for effect on veratridine-evoked [^3H]noradrenaline release, given alone: CB1 antagonist given alone; for effect on evoked tritium overflow: 3 μM rauwolscine
Protocol: PC12 cells were cultured in suspension culture as described by Harder and Bönisch (1984). […] For the experiments on intact cells, PC12 cells were cultured in a humidified CO2-incubator (at 37° C. and in the presence of 9% CO2) on dishes (60 mm, Nunc) coated with polyornithine 0.1 g/l (in 0.15 M boric acid, and 67 mM NaOH, adjusted with HCl to pH 8.4). Each culture dish contained about 10^7 cells corresponding to about 1 mg cell protein.
To load the cells with labelled noradrenaline, 10 nM [^3H]noradrenaline was added to the culture medium (3 ml/dish) and the cells were incubated for 3 h in a CO2-incubator (37° C.). To minimize oxidation of the catecholamine, L(+)-ascorbic acid (1 mM) was present in all solutions. The cells were then washed twice with culture medium and incubated for 60 min with [^3H]noradrenaline-free culture medium (with a change of the medium after 30 min). Subsequently the cell dishes were transferred to a water bath of 37° C. (onset of the experiment) and the cells were then incubated until the end of the experiment with prewarmed (37° C.) [^3H]noradrenaline-free HEPES-buffered salt solution (composition in mM unless stated otherwise: NaCl 125, KCl 15, KH2PO4 1.2, CaCl2 2.6, MgSO4 1.2, HEPES-NaOH (pH 7.4) 25, D(+)-glucose 5.6, L(+)-ascorbic acid 1.0) with a change of the medium every 5 min (total incubation time in the HEPES buffer: 85 min). To minimize loss of cells during washing und to inhibit the neuronal noradrenaline transport system the solution contained 1 g/l bovine serum albumin and 1 μM desipramine, respectively (Friedrich and Bönisch, 1986). The agonist and/or antagonist under study was added to the HEPES buffer at the onset of the exposure to this buffer. Sixty min after onset of incubation with the buffer 1 mM veratridine was added for 5 min. In a few experiments, the HEPES-buffered salt solution contained 4.8 instead of 15 mM KCl and stimulation was carried out either by 1 mM veratridine or by increasing the KCl concentration to 15 mM (time schedule identical to the standard procedure). In one series of experiments, culture medium was changed daily (instead of changing it every 3 days as standard condition) and 100 μM clonidine was added to the medium for 72 h. The cells were then washed twice with clonidine-free culture medium (with a change of the medium after 30 min). Subsequently the cell dishes were transferred to a water bath of 37° C. (onset of the experiment) and the cells were then incubated until the end of the experiment with prewarmed (37° C.) [^3H]noradrenaline-free HEPES-buffered salt solution and veratridine was administered 2 h after the end of exposure to clonidine. Basal efflux of tritium was determined in the 5-min period before and in that 20 min after onset of stimulation. Veratridine-evoked tritium overflow was determined in the four 5-min periods after the onset of veratridine application. At the end of the experiment, the cells were solubilized by 0.1% v/v TritonX-100 (in 5 mM Tris-HCl, pH 7.4). The radioactivity of the solubilized cells und of the wash-out samples was determined by liquid scintillation counting.

[2] = target: T1, h(edg2) receptor (Homo sapiens, UniProt Q92633); experiment: Agonist-induced [^35S]GTPγS binding to membranes from RH7777 cells stably transfected with h(edg2) receptors; type: biochemical; conditions: for agonist character at the edg2-receptor: increase to the same extent as for the endogenous ligand LPA; for effect on [^35S]GTPγS-binding: nanomolar concentrations, 10 μM rauwolscine, 0.1 μM GDP
T1 construct: expressed in transfected cells; host or cells: RH7777 cells (rat hepatoma cells), membranes
T1 sequence (Q92633 whole entry): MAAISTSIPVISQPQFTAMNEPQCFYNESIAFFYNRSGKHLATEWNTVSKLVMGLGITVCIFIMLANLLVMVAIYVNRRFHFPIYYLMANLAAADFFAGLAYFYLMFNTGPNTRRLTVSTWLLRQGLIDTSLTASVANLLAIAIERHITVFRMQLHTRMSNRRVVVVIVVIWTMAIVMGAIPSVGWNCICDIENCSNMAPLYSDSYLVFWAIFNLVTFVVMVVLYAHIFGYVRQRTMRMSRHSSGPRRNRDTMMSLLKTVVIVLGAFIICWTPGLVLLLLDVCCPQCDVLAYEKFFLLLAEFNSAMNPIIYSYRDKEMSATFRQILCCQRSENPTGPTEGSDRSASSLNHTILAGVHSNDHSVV
Protocol: RH7777 cells (rat hepatoma cells) stably transfected with cDNA encoding the h(edg2) receptor and PC12 cells were homogenized in ice-cold 20 mM HEPES buffer containing […] EDTA (pH 7.4 at RT) with an ultraturrax homgenizer and centrifuged at 48,000 g, 4° C. for 15 min. The pellet was resuspended in ice-cold 20 mM HEPES buffer containing 0.1 mM EDTA (pH 7.4 at RT) and recentrifuged at 48,000 g, 4° C. for 15 min. The final pellet was resuspended in 20 mM HEPES buffer (pH 7.4 at RT).
50 μg Membranes were incubated in 0.5 ml of GTP-binding buffer containing GDP 0.1 μM, rauwolscine 10 μM (in the experiments with membranes from RH7777 cells), [^35S]GTPγs 0.05 nM and indicated test compound (LPA, clonidine or moxonidine diluted in assay buffer containing 1% fatty acid free BSA) for 45 min at 30° C. The incubation was terminated by filtering over GF/B filters with a cell harvester, and the filters were washed once with 5 ml of ice-cold assay buffer. Radioactivity was counted by liquid scintillation spectrometry at an efficiency of >95%.

[3] = tested on: α2-adrenoceptors; experiment: [^3H]rauwolscine radioligand binding to membranes from undifferentiated PC12 cells; design: species or system rat; conditions: 16.8 nM radioligand; for [^3H]Rauwolscine binding: n=4
Protocol: Results are expressed as mean values±SEM. All experiments were carried out in triplicate.

[4] = drug 100 μM, 3 μM rauwolscine present

`CCCCCCCC/C=C\CCCCCCCC(=O)OC[C@@H](O)COP(=O)(O)O` [1-oleoyl-LPA, 1-oleoyl-lysophosphatidic acid] was tested, and the “effect on evoked [^3H]noradrenaline release” value ([1]; 10 μM 1-oleoyl-LPA, cells pretreated with 100 μM clonidine for 72 h) was “did not inhibit but tended to increase” and the “effect on veratridine-evoked [^3H]noradrenaline release (concentration-response)” value [1] was “concentration-dependently inhibited”.
In the case of `CCCCCCCCCCCCCCCC(=O)OCC(O)COP(=O)(O)O` (centres unmarked) [1-palmitoyl-LPA], the “effect on evoked [^3H]noradrenaline release” value ([1]; 10 μM 1-palmitoyl-LPA) is reported as “did not alter” and the “effect on evoked [^3H]noradrenaline release” value ([1]; up to 1 μM 1-palmitoyl-LPA) is reported as “concentration-dependently increased”.
For `N=C(N)NN1Cc2c(Cl)ccc(Cl)c2C1` [Aganodine, aganodine], the “effect on veratridine-induced [^3H]noradrenaline release at 100 μM (in words)” value (“effect on veratridine-induced … (in words)” below) [1, 4] was “inhibited” and the “Veratridine (1 mM)-induced [^3H]noradrenaline release (% of controls without drug)” value ([1]; drug 100 μM, 15 mM KCl, 1 μM desipramine and 3 μM rauwolscine throughout, means ± SEM of 6-11 experiments) was 32.3 ± 5.7%.
In the case of `N=C(N)NCCCCN.O=S(=O)(O)O` [Agmatine, agmatine sulfate], the activity at 100 µM ([1]; Rattus norvegicus) is reported as 76.4 ± 9.5%, the “effect on veratridine-induced … (in words)” value [1, 4] is reported as “inhibited” and the “effect on veratridine-induced [^3H]noradrenaline release (concentration-response)” value [1] is reported as “concentration-dependently inhibited”.
For `CCCCC/C=C\C/C=C\C/C=C\C/C=C\CCCC(=O)NCCO` [Anandamide, anandamide], the “effect on veratridine-evoked [^3H]noradrenaline release” value ([1]; 1 μM anandamide) was “did not affect” and the “effect on veratridine-evoked [^3H]noradrenaline release” value ([1]; 100 μM anandamide) was “enhanced”.
In the case of `Cl.Clc1cccc2c1CN(NC1=NCCN1)C2` [BDF 6143, 4-chloro-2-(2-imidazolin-2-ylamino)-isoindoline hydrochloride], the activity at 100 µM ([1]; Rattus norvegicus) is reported as 74.7 ± 11.1%, the “effect on veratridine-induced … (in words)” value [1, 4] is reported as “inhibited” and the “effect on veratridine-induced [^3H]noradrenaline release (concentration-response)” value [1] is reported as “concentration-dependently inhibited”.
`c1ccc(C2CC2)c(OCC2=NCCN2)c1` [Cirazoline, cirazoline hydrochloride] was tested, and the activity at 100 µM ([1]; Rattus norvegicus) was 17.4 ± 7.5% and the “effect on veratridine-induced … (in words)” value [1, 4] was “inhibited”.
`Clc1cccc(Cl)c1N=C1NCCN1` [Clonidine, clonidine hydrochloride] was tested, and the “agonist character at the edg2-receptor” value [2] was “full agonists”, the “effect on [^35S]GTPγS-binding” value [2] was “provoke an increase” and the “effect on [^3H]noradrenaline release” value ([1]; 10 μM clonidine in the presence of 10 μM SR141716A) was “acted facilitatory”. For the same compound, the “evoked [^3H]noradrenaline release (% of veratridine-evoked release in the respective control experiments)” value ([1]; 100 μM clonidine, cells pretreated with 100 μM clonidine for 72 h, n=6) was 171±24%, the activity at 100 µM ([1]; Rattus norvegicus) was 25.6 ± 12.2% and the “effect on veratridine-induced … (in words)” value [1, 4] was “inhibited”. The “effect on veratridine-evoked [^3H]noradrenaline release (concentration-response)” value [1] was “concentration-dependently inhibited” and the “effect on veratridine-induced [^3H]noradrenaline release (concentration-response)” value [1] was “concentration-dependently inhibited”.
With `Cc1ccccc1NC(=N)Nc1ccccc1C` [DTG, 1,3-di(2-tolyl)guanidine] the activity at 100 µM ([1]; Rattus norvegicus) was 63.3 ± 7% and the “effect on veratridine-induced … (in words)” value [1, 4] was “inhibited”.
For `COc1ccc(-c2sc3cc(OC)ccc3c2C(=O)c2ccc(C#N)cc2)cc1` [LY320135, [6-methoxy-2-(4-methoxyphenyl)benzo[b]thien-3-yl][4-cyanophenyl]methanone], the “interaction with the inhibition produced by 100 μM clonidine” value ([1]; 10 μM LY320135) was “counteracted”, the “evoked [^3H]noradrenaline release (% of evoked release in the respective control experiments)” value ([1]; 10 μM LY320135 together with 10 μM 1-oleoyl-LPA, n=6) was 198.8%±39.9% and the “effect on veratridine-evoked [^3H]noradrenaline release, given alone” value [1] was “did not affect”.
In the case of `COc1nc(C)nc(Cl)c1N=C1NCCN1` [Moxonidine, moxonidine], the “agonist character at the edg2-receptor” value [2] is reported as “full agonists”, the “effect on [^35S]GTPγS-binding” value [2] is reported as “provoke an increase” and the activity at 100 µM ([1]; Rattus norvegicus) is reported as 81.6 ± 5.2%. The “effect on veratridine-induced [^3H]noradrenaline release” value ([1]; up to a concentration of 1000 μM, 3 μM rauwolscine present) was “failed to modify”.
`NC[C@H](O)c1ccc(O)c(O)c1` [Noradrenaline, noradrenaline base] was tested, and the activity at 100 µM ([1]; Rattus norvegicus) was 93 ± 11.5% and the “effect on veratridine-induced … (in words)” value [1, 4] was “failed to modify”.
In the case of `COC(=O)[C@H]1[C@H]2C[C@H]3c4[nH]c5ccccc5c4CCN3C[C@H]2CC[C@@H]1O` [Rauwolscine, Rauwolscine hydrochloride], the “effect on the concentration-response curve of clonidine” value (“effect … of clonidine” below) ([1]; 3 μM rauwolscine versus absence of rauwolscine) is reported as “did not substantially differ”, the “effect … of clonidine” value ([1]; 30 μM rauwolscine) is reported as “shifted to the right” and the “interaction with the inhibitory effect of 10 μM 1-oleoyl-LPA” value ([1]; 30 μM rauwolscine) is reported as “counteracted”. The “effect on veratridine-induced [^3H]noradrenaline release, given alone” value ([1]; rauwolscine 3 μM alone, n=6) was “did not significantly modify”.
For `CCCCCCCCCCCCC/C=C/[C@@H](O)[C@@H](N)COP(=O)(O)O` [S1P, sphingosine-1-phosphate], the “evoked [^3H]noradrenaline release (% of veratridine-evoked release in the respective control experiments)” value ([1]; 10 μM S1P, n=6) was 101.7%±31.3%.
For `Cc1c(C(=O)NN2CCCCC2)nn(-c2ccc(Cl)cc2Cl)c1-c1ccc(Cl)cc1` [SR141716A, N-[piperidin-1-yl]-5-[4-chlorophenyl]-1-[2,4-dichlorophenyl]-4-methyl-1H-pyrazole-3-carboxamide], the “interaction with the inhibition produced by 100 μM clonidine” value ([1]; 1 μM SR141716A) was “counteracted”, the “interaction with the inhibitory effect of 10 μM 1-oleoyl-LPA” value ([1]; 1 μM SR141716A) was “counteracted” and the “interaction with the inhibitory effect of 0.3 μM CP55,940” value ([1]; 1 μM SR141716A + 3 μM rauwolscine) was “antagonized”. The “effect … of clonidine” value ([1]; 10 μM SR141716A) was “shifted to the right” and the “effect on veratridine-evoked [^3H]noradrenaline release, given alone” value [1] was “did not affect”.
In the case of `CS(=O)(=O)O.Cc1c(C(=O)c2cccc3ccccc23)c2cccc3c2n1[C@H](CN1CCOCC1)CO3` [WIN55,212-2, R(+)-[2,3-dihydro-5-methyl-3-[(morpholinyl)methyl]pyrrolo[1,2,3-de]-1,4-benzoxazin-yl)(1-naphthalenyl)methanone mesylate], the “effect on veratridine-induced [^3H]noradrenaline release (concentration-response)” value [1] is reported as “concentration-dependently inhibited”.
`Cc1c(C(=O)c2cccc3ccccc23)c2cccc3c2n1[C@@H](CN1CCOCC1)CO3` [WIN55,212-3] was tested, and the “effect on veratridine-induced … (in words)” value [1, 4] was “did not”.
For `COC(=O)[C@H]1[C@H]2C[C@H]3c4[nH]c5ccccc5c4CCN3C[C@H]2CC[C@@H]1O` [[^3H]Rauwolscine, [O-methyl-3H]rauwolscine], the “[^3H]Rauwolscine binding as % of the radioactivity added to each assay” value ([3]; absence of 10 μM rauwolscine) was 0.19±0.01%, the “[^3H]Rauwolscine binding” value ([3]; absence of 10 μM rauwolscine) was 134.0±7.1 fmol/mg protein and the “[^3H]Rauwolscine binding as % of the radioactivity added to each assay” value ([3]; presence of 10 μM rauwolscine) was 0.19±0.01%. The “[^3H]Rauwolscine binding” value ([3]; presence of 10 μM rauwolscine) was 132.8±7.0 fmol/mg protein.
For `COc1cc2c(c(OC)c1OC)-c1ccc(OC)c(=O)cc1[C@@H](NC(C)=O)CC2` [colchicine], the inhibition at 50 µM ([1]; Rattus norvegicus, PC-12, read-out: inhibition of veratridine (1 mM)-evoked tritium overflow) was 56%.
With “[(−)-cis-3-[2-hydroxy-4-(1,1-dimethylheptyl)phenyl]-trans-4-(3-hydroxypropyl)-cyclohexane [CP55,940]” the “effect on evoked tritium overflow” value ([1]; 0.3 μM CP55,940) was “significantly inhibited”, the “effect on evoked tritium overflow” value ([1]; 1 μM CP55,940) was “no inhibition” and the “effect on evoked tritium overflow” value ([1]; 10 μM CP55,940) was “facilitation”.
In the case of lysophospatidic acid [LPA], the “effect on [^35S]GTPγS-binding” value [2] is reported as “provoke an increase”.
